Results taken from PubChem BioAssay AID256 (DTP/NCI, 2004).
Values joined by “and” are separate entries in the source; they are usually repeats but may differ in a detail not shown here. Identical values can stand only once. Toxic doses and inconclusive results are not listed.

Test system: CD2F1 mice, L1210 leukemia ip, survival T/C
Assay: NCI In Vivo Anticancer Drug Screen. Data for tumor model L1210 Leukemia (intraperitoneal) in CD2F1 (CDF1) mice
Conditions: higher = longer survival
Method in brief: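 Ratio T/C, where T is the treated-group value and C the vehicle-dosed control value, from mice implanted with a transplantable tumor.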

[1] = endpoint: mean survival time, dose: 100.0 mg/kg/injection, schedule: Q01DX009 (ip), vehicle: saline with Tween-80
[2] = endpoint: mean survival time, dose: 200.0 mg/kg/injection, schedule: Q01DX009 (ip), vehicle: saline with Tween-80
[3] = endpoint: mean survival time, dose: 400.0 mg/kg/injection, schedule: Q01DX009 (ip), vehicle: saline with Tween-80
[4] = endpoint: mean survival time, dose: 100.0 mg/kg/injection, schedule: Q04DX002 (ip), vehicle: saline with Tween-80
[5] = endpoint: mean survival time, dose: 200.0 mg/kg/injection, schedule: Q04DX002 (ip), vehicle: saline with Tween-80
[6] = endpoint: mean survival time, dose: 400.0 mg/kg/injection, schedule: Q04DX002 (ip), vehicle: saline with Tween-80
[7] = endpoint: mean survival time, dose: 100.0 mg/kg/injection, schedule: Q04DX003 (ip), vehicle: saline with Tween-80
[8] = endpoint: mean survival time, dose: 200.0 mg/kg/injection, schedule: Q04DX003 (ip), vehicle: saline with Tween-80
[9] = endpoint: mean survival time, dose: 400.0 mg/kg/injection, schedule: Q04DX003 (ip), vehicle: saline with Tween-80
[10] = endpoint: mean survival time, dose: 25.0 mg/kg/injection, schedule: Q01DX005 (ip), vehicle: water

COC(=O)CCC(=O)c1ccccc1C
T/C (endpoint: mean survival time, dose: 100.0 mg/kg/injection, schedule: Q04DX003 (ip), vehicle: acetone): 100 % of control
T/C (endpoint: mean survival time, dose: 200.0 mg/kg/injection, schedule: Q04DX003 (ip), vehicle: acetone): 100 % of control

BrC1CC2CC1C1C=CCC21 (stereo not drawn)
T/C [1]: 100 % of control
T/C [2]: 101 % of control
T/C [3]: 101 % of control

Clc1c(Br)nc(Br)nc1C(Cl)(Cl)Cl
T/C (endpoint: mean survival time, dose: 6.25 mg/kg/injection, schedule: Q04DX003 (ip), vehicle: saline with Tween-80): 98 % of control
T/C (endpoint: mean survival time, dose: 12.5 mg/kg/injection, schedule: Q04DX003 (ip), vehicle: saline with Tween-80): 98 % of control
T/C (endpoint: mean survival time, dose: 25.0 mg/kg/injection, schedule: Q04DX003 (ip), vehicle: saline with Tween-80): 98 % of control

Cc1nc2c(n1C)C(=O)c1ccccc1C2=O
T/C (endpoint: mean survival time, dose: 100.0 mg/kg/injection, schedule: Q04DX003 (ip), vehicle: saline): 101 % of control

Nc1ncnc2c1ncn2C1OC(C[Se](=O)c2ccccc2)C(O)C1O (stereo not drawn)
T/C (endpoint: median survival time, dose: 12.5 mg/kg/injection, schedule: Q01DX005 (ip), vehicle: Klucel (hydroxypropylcellulose) (HPC)): 102 % of control
T/C (endpoint: median survival time, dose: 25.0 mg/kg/injection, schedule: Q01DX005 (ip), vehicle: Klucel (hydroxypropylcellulose) (HPC)): 106 % of control
T/C (endpoint: median survival time, dose: 50.0 mg/kg/injection, schedule: Q01DX005 (ip), vehicle: Klucel (hydroxypropylcellulose) (HPC)): 103 % of control
T/C (endpoint: median survival time, dose: 100.0 mg/kg/injection, schedule: Q01DX005 (ip), vehicle: Klucel (hydroxypropylcellulose) (HPC)): 103 % of control
T/C (endpoint: median survival time, dose: 200.0 mg/kg/injection, schedule: Q01DX005 (ip), vehicle: Klucel (hydroxypropylcellulose) (HPC)): 104 % of control

CN/N=C1\CCC2C3CCc4cc(O)ccc4C3CCC12C (stereo not drawn)
T/C (endpoint: mean survival time, dose: 25.0 mg/kg/injection, schedule: Q01DX009 (ip), vehicle: Klucel (hydroxypropylcellulose) (HPC)): 102 % of control
T/C (endpoint: mean survival time, dose: 50.0 mg/kg/injection, schedule: Q01DX009 (ip), vehicle: Klucel (hydroxypropylcellulose) (HPC)): 103 % of control

O=C1C2CC=CCC2C(=O)C2CC=CCC12 (stereo not drawn)
T/C (endpoint: mean survival time, dose: 100.0 mg/kg/injection, schedule: Q01DX001 (ip), vehicle: saline with Tween-80): 92 % of control
T/C (endpoint: mean survival time, dose: 200.0 mg/kg/injection, schedule: Q01DX001 (ip), vehicle: saline with Tween-80): 92 % of control
T/C (endpoint: mean survival time, dose: 400.0 mg/kg/injection, schedule: Q01DX001 (ip), vehicle: saline with Tween-80): 101 % of control

CC1C2CCC(C2)C1CO (stereo not drawn)
T/C (endpoint: mean survival time, dose: 50.0 mg/kg/injection, schedule: Q01DX009 (ip), vehicle: saline): 102 % of control
T/C (endpoint: mean survival time, dose: 100.0 mg/kg/injection, schedule: Q01DX009 (ip), vehicle: saline): 98 % of control
T/C (endpoint: mean survival time, dose: 200.0 mg/kg/injection, schedule: Q01DX009 (ip), vehicle: saline): 104 % of control

Oc1ccc(/C=N/NC(=S)Nc2ccccc2)nc1
T/C [4]: 106 % of control
T/C [5]: 106 % of control
T/C [6]: 95 % of control

CC(=O)N(C)O
T/C (endpoint: median survival time, dose: 12.5 mg/kg/injection, schedule: Q01DX009 (ip), vehicle: saline with Tween-80): 102 % of control
T/C (endpoint: median survival time, dose: 25.0 mg/kg/injection, schedule: Q01DX009 (ip), vehicle: saline with Tween-80): 102 % of control and 103 % of control
T/C (endpoint: median survival time, dose: 50.0 mg/kg/injection, schedule: Q01DX009 (ip), vehicle: saline with Tween-80): 102 % of control and 103 % of control
T/C (endpoint: median survival time, dose: 100.0 mg/kg/injection, schedule: Q01DX009 (ip), vehicle: saline with Tween-80): 106 % of control
T/C (endpoint: median survival time, dose: 200.0 mg/kg/injection, schedule: Q01DX009 (ip), vehicle: saline with Tween-80): 156 % of control
T/C (endpoint: median survival time, dose: 400.0 mg/kg/injection, schedule: Q01DX009 (ip), vehicle: saline with Tween-80): 176 % of control

CCCCC1(CC)NC(=O)NC1=O (stereo not drawn)
T/C (endpoint: mean survival time, dose: 100.0 mg/kg/injection, schedule: Q01DX001 (ip), vehicle: other): 92 % of control
T/C (endpoint: mean survival time, dose: 200.0 mg/kg/injection, schedule: Q01DX001 (ip), vehicle: other): 92 % of control
T/C (endpoint: mean survival time, dose: 400.0 mg/kg/injection, schedule: Q01DX001 (ip), vehicle: other): 87 % of control

Cc1cc(F)ccc1NC(=O)OC(C)C
T/C [7]: 101 % of control
T/C [8]: 92 % of control
T/C [9]: 104 % of control

CC1=C2C(=CC(C)(CO)C2O)C(O)C(C)(O)C12CC2 (stereo not drawn)
T/C (endpoint: mean survival time, dose: 1.56 mg/kg/injection, schedule: Q01DX005 (ip), vehicle: water): 94 % of control
T/C (endpoint: mean survival time, dose: 3.13 mg/kg/injection, schedule: Q01DX005 (ip), vehicle: water): 87 % of control
T/C (endpoint: mean survival time, dose: 6.25 mg/kg/injection, schedule: Q01DX005 (ip), vehicle: water): 89 % of control
T/C (endpoint: mean survival time, dose: 12.5 mg/kg/injection, schedule: Q01DX005 (ip), vehicle: water): 94 % of control
T/C [10]: 100 % of control

CCCCCCCCCCCCCCCCCCOc1ccc(Cl)cc1
T/C [4]: 90 % of control
T/C [5]: 93 % of control

O=C(COc1cccc(Cl)c1)NCc1ccccc1NC(=O)CBr
T/C (endpoint: mean survival time, dose: 2.35 mg/kg/injection, schedule: Q01DX001 (ip), vehicle: saline with Tween-80): 101 % of control
T/C (endpoint: mean survival time, dose: 4.7 mg/kg/injection, schedule: Q01DX001 (ip), vehicle: saline with Tween-80): 97 % of control
T/C (endpoint: mean survival time, dose: 9.4 mg/kg/injection, schedule: Q01DX001 (ip), vehicle: saline with Tween-80): 92 % of control

COc1cccc(CN2CCCNCC2)c1
T/C [10]: 96 % of control
T/C (endpoint: mean survival time, dose: 50.0 mg/kg/injection, schedule: Q01DX005 (ip), vehicle: water): 96 % of control
T/C (endpoint: mean survival time, dose: 100.0 mg/kg/injection, schedule: Q01DX005 (ip), vehicle: water): 94 % of control

Cc1onc(-c2ccccc2)c1C1=N/C(=C\c2ccc(N(C)C)cc2)C(=O)O1
T/C [4]: 94 % of control
T/C [5]: 113 % of control
T/C [6]: 90 % of control

CCOC(=O)/C(C#N)=C/NC(N)=O
T/C (endpoint: mean survival time, dose: 50.0 mg/kg/injection, schedule: Q01DX001 (ip), vehicle: Klucel (hydroxypropylcellulose) (HPC)): 100 % of control
T/C (endpoint: mean survival time, dose: 100.0 mg/kg/injection, schedule: Q01DX001 (ip), vehicle: Klucel (hydroxypropylcellulose) (HPC)): 91 % of control and 92 % of control
T/C (endpoint: mean survival time, dose: 200.0 mg/kg/injection, schedule: Q01DX001 (ip), vehicle: Klucel (hydroxypropylcellulose) (HPC)): 103 % of control
T/C (endpoint: mean survival time, dose: 400.0 mg/kg/injection, schedule: Q01DX001 (ip), vehicle: Klucel (hydroxypropylcellulose) (HPC)): 88 % of control

Cc1ccc(NC(=O)c2ccccc2Cl)c(C)c1
T/C [1]: 110 % of control
T/C [7]: 104 % of control
T/C [2]: 93 % of control
T/C [8]: 101 % of control
T/C [3]: 98 % of control
T/C [9]: 97 % of control

COc1cc(NS(C)(=O)=O)ccc1Nc1c2ccc(Cl)cc2nc2c(OC)cccc12
T/C (endpoint: mean survival time, dose: 12.5 mg/kg/injection, schedule: Q01DX009 (ip), vehicle: saline with Tween-80): 106 % of control
T/C (endpoint: mean survival time, dose: 66.0 mg/kg/injection, schedule: Q04DX003 (ip), vehicle: saline with Tween-80): 238 % of control
T/C (endpoint: mean survival time, dose: 100.0 mg/kg/injection, schedule: Q04DX003 (ip), vehicle: saline sonified): 168 % of control
T/C [7]: 273 % of control
T/C (endpoint: mean survival time, dose: 150.0 mg/kg/injection, schedule: Q04DX003 (ip), vehicle: saline with Tween-80): 88 % of control
T/C (endpoint: mean survival time, dose: 200.0 mg/kg/injection, schedule: Q04DX003 (ip), vehicle: saline sonified): 154 % of control

O=C(Oc1ccc(=O)[nH]n1)c1ccccc1
T/C (endpoint: mean survival time, dose: 12.5 mg/kg/injection, schedule: Q04DX002 (ip), vehicle: saline with Tween-80): 98 % of control
T/C (endpoint: mean survival time, dose: 25.0 mg/kg/injection, schedule: Q04DX002 (ip), vehicle: saline with Tween-80): 94 % of control
T/C (endpoint: mean survival time, dose: 50.0 mg/kg/injection, schedule: Q04DX002 (ip), vehicle: saline with Tween-80): 90 % of control and 94 % of control
T/C [5]: 87 % of control
